Reference: PubChem BioAssay AID1361 (SRMLSC, 2008)
The source made the active and inactive calls. The rule behind the calls is not given here.

Assay: mitochondrial fusion inhibitors, confirmation, cell-based, chemical genetic, wild-type and mutant (AID 1361)
Settings: Cell-based mitochondrial fusion phenotype, imaging
[1] = mutant cells, measured here: mutant cell line IC50

Row | SMILES | IC50 (WT cells) | IC50 [1]
1 | c1csc(C(c2nnnn2C2CCCC2)N2CCCC3(CCCCC3)C2)c1 (stereo unspecified) | 4.94 µM | > 25 µM
2 | COc1ccc(CNC(=O)C2CC(=O)N(c3ccc(OCC(=O)N4C(C)CCCC4C)cc3)C2)cc1 (stereo unspecified) | > 25 µM (inactive) | > 25 µM
3 | CCOC(=O)c1c(-c2ccc(C)cc2)csc1NC(=O)C1CCCO1 (stereo unspecified) | > 25 µM (inactive) | > 25 µM
4 | Cc1ccc2nc(N/N=C/c3ccccc3F)nc(-c3ccccc3)c2c1 | 7.54 µM | 16.6 µM
5 | O=C(Nc1ccc(Cl)c(Cl)c1)c1ccc(Cn2cc(Cl)cn2)cc1 | 8.52 µM | 18.6 µM
6 | CCCCn1c(N2CCC(Cc3ccccc3)CC2)nc2c1c(=O)[nH]c(=O)n2C | 13.7 µM | > 25 µM
7 | Cc1onc(-c2ccccc2Cl)c1C(=O)Nc1nnc(-c2ccc(Br)cc2)s1 | 8.39 µM | > 25 µM
8 | N#Cc1c(-c2cccnc2)c2c([nH]c1=S)CCCC2 | > 25 µM (inactive) | > 25 µM
9 | O=C(N/N=C/c1cccc(O)c1)c1ccc(COc2ccccc2Br)cc1 | 18.8 µM | > 25 µM
10 | CCCCCOc1ccc2oc(=O)c3c(c2c1)CCCN3C(=O)CN1CCCC(C(=O)OCC)C1 (stereo unspecified) | > 25 µM (inactive) | > 25 µM
11 | O=C(CN1C(=O)COc2ccccc21)N(Cc1cccnc1)Cc1cccc(F)c1 | > 25 µM (inactive) | > 25 µM
12 | COc1cccc(C2=CC(c3ccccc3)n3nnnc3N2)c1 (stereo unspecified) | > 25 µM (inactive) | > 25 µM
13 | CCOC(=O)c1cnc(-n2nc(C)cc2C)nc1NNc1cc(C)nc(-c2ccccc2)n1 | 16.3 µM | > 25 µM
14 | c1ccc2c(c1)CCN(c1ncnc3c1[nH]c1ccccc13)C2 | > 25 µM (inactive) | > 25 µM
15 | O=C(CNC(=S)N(Cc1ccccc1)Cc1ccccc1F)NCCc1ccc(Cl)cc1 | 4.01 µM | > 25 µM
16 | O=C(Nc1ccc(F)cc1)c1ccccc1Oc1ccc(C(F)(F)F)cc1[N+](=O)[O-] | 17.5 µM | > 25 µM
17 | CC1CCC(C(C)C)C(OC(=O)COC(=O)c2ccccc2N)C1 (stereo unspecified) | 17.9 µM | > 25 µM
18 | CCOC(=O)Cc1c(Sc2ccccc2)c2cc(C)ccc2n1C | 12.3 µM | > 25 µM
19 | Cc1ccccc1C(=O)Oc1ccc(Sc2ccc(O)cc2)cc1 | 8.72 µM | > 25 µM
20 | CCCCOc1c(Br)cc(/C=N/O)cc1OCC | > 25 µM (inactive) | > 25 µM
21 | COc1ccc(Cn2nc(-c3ccccc3)c(N3CCCCC3)cc2=O)cc1 | 10.3 µM | > 25 µM

Row | SMILES | IC50 (WT cells) | IC50 [1]
22 | Cc1ccc(C(c2nnnn2CCc2ccccc2)N2CCC(C)CC2)cc1 (stereo unspecified) | > 25 µM (inactive) | > 25 µM
23 | O=[N+]([O-])c1ccc(Nc2c3ccccc3nc3ccccc23)cc1 | 12.4 µM | 18.1 µM
24 | CC1=CN2C(=N)/C(=C/c3ccc(Sc4ccc(C)cc4)o3)C(=O)N=C2S1 | 7.68 µM | > 25 µM
25 | COCC(C)n1c(SCc2ccc(OC)c(F)c2)nc2ccccc2c1=O (stereo unspecified) | 15.3 µM | > 25 µM
26 | CCOc1ccc(Cc2c(Cl)nc(SC)nc2N(C)C)cc1 | 11.8 µM | > 25 µM
27 | CCC(C)(C)NC(=O)CN(C(=O)c1snc(C(N)=O)c1N)c1ccc2c(c1)OCCO2 | > 25 µM (inactive) | > 25 µM
28 | Cc1ccc2nc(SC(C(=O)Nc3ccc(F)cc3)c3ccccc3)[nH]c2c1 (stereo unspecified) | > 25 µM (inactive) | > 25 µM
29 | COc1ccc(Nc2nc(-c3ccccc3)c3ccccc3n2)cc1 | 10.7 µM | > 25 µM
30 | Cc1cccc(NC(=O)c2ccc(N3CCCCC3)c([N+](=O)[O-])c2)n1 | > 25 µM (inactive) | > 25 µM
31 | CCOc1ccc(NC(=S)NN(C)C(=S)Nc2ccc(OCC)cc2)cc1 | > 25 µM (inactive) | > 25 µM
32 | Cc1nc2c(ccc3nc(NC(=O)Cc4ccccc4)sc32)s1 | 12.4 µM | > 25 µM
33 | Cc1nn(-c2ccccc2)c(C)c1NC(=O)c1ccc(S(=O)(=O)N2CCCC2)cc1 | > 25 µM (inactive) | > 25 µM
34 | CCCCSc1nnc(-c2ccccc2)c2ccccc12 | 24.9 µM (inactive) | > 25 µM
35 | O=C(CN1CCN(c2ccccn2)CC1)N1c2ccccc2Sc2ccc(C(F)(F)F)cc21 | 16 µM | > 25 µM
36 | CCOC(=O)C1=NN(c2ccccc2)C2=NC(C)=C(C(=O)OC)C(c3ccc(C)cc3)N12 (stereo unspecified) | 8.75 µM | > 25 µM
37 | COc1ccc(C(C(=O)Nc2ccc(F)cc2)N(C(=O)Cn2nnc3ccccc32)C2CC2)cc1 (stereo unspecified) | > 25 µM (inactive) | > 25 µM
38 | CC1=CC(C)(C)N(S(=O)(=O)c2ccc(C)cc2)c2cc(C)ccc21 | 11.1 µM | > 25 µM
39 | CC1CCN(C(=O)/C=C/c2ccc(C(C)(C)C)cc2)CC1 | > 25 µM (inactive) | > 25 µM
40 | CC(=O)Cc1nsc(NC(=O)c2ccc(-c3cc(Cl)ccc3Cl)o2)n1 | > 25 µM (inactive) | > 25 µM
41 | N#C/C(=C\c1cccc(NC(=O)c2ccccc2Cl)c1)C(=O)NCCc1ccccc1 | 10.9 µM | > 25 µM
42 | CCOC(=O)c1c(C)n(C)c2cc(Br)c(C(=O)OC)cc12 | > 25 µM (inactive) | > 25 µM

Row | SMILES | IC50 (WT cells) | IC50 [1]
43 | Cc1cc(N=Cc2cc(Cl)ccc2O)no1 | > 25 µM (inactive) | > 25 µM
44 | COc1ccccc1N(CC(O)COc1c(C)cc(C)cc1C)S(=O)(=O)c1ccccc1 (stereo unspecified) | 16.1 µM | > 25 µM
45 | O=C1CC(SCc2nc3ccccc3[nH]2)C(=O)N1c1cccc(F)c1 (stereo unspecified) | > 25 µM (inactive) | > 25 µM
46 | CCOC1(OCC)C(c2ccc(Cl)cc2)C(C#N)(C#N)C1(OCC)OCC (stereo unspecified) | 11.5 µM | > 25 µM
47 | CCOc1ccccc1N1CCN(C(=O)c2ccc3[nH]c4c(c3c2)CCCC4)CC1 | 17.1 µM | > 25 µM
48 | COc1ccccc1C1(CCNS(=O)(=O)c2ccc(C)cc2)CCOC(C(C)C)C1 (stereo unspecified) | 21 µM | > 25 µM
49 | O=C(N/N=C/c1c[nH]c2ccccc12)C1CC1(c1ccccc1)c1ccccc1 (stereo unspecified) | > 25 µM (inactive) | > 25 µM
50 | Cc1csc(NC(=O)c2c(O)c3c(n(CC(C)C)c2=O)CCCC3)n1 | 14.7 µM | > 25 µM
51 | CC(C)C12CN3CCN(CC(C3)C1O)C2 (stereo unspecified) | > 25 µM (inactive) | > 25 µM
52 | Clc1ccc2c(c1)C(c1ccccc1Cl)=NCc1nnc(N3CCN(CCSc4ccccc4)CC3)n1-2 | 13.9 µM | > 25 µM
53 | Cc1ccc(-c2nc(N)sc2-c2ccc(C)cc2)cc1 | 9.96 µM (inactive) | 9.46 µM
54 | CCCCC(c1nnnn1CC1CCCO1)N1CCN(c2cc(Cl)ccc2C)CC1 (stereo unspecified) | 21.6 µM | > 25 µM
55 | CC(C)C1OC(c2cccc(NC(=O)c3cccs3)c2)OCC1(C)C (stereo unspecified) | > 25 µM (inactive) | > 25 µM
56 | CCOc1c(OC(C)=O)ccc(/C=C/c2ccc3cccc(OC(C)=O)c3n2)c1[N+](=O)[O-] | > 25 µM (inactive) | > 25 µM
57 | CC1(C)C=Cc2c(c3c(c4c(=O)c(-c5ccc(O)cc5)coc24)OC(C)(C)CC3)O1 | 14 µM | 24.4 µM
58 | COc1cc(SC)ccc1C(=O)NCC1CCCO1 (stereo unspecified) | > 25 µM (inactive) | > 25 µM
59 | O=C(CSCC(=O)N1CCCCC1)Nc1nc(-c2ccccc2)c(-c2ccccc2)s1 | 10.7 µM | > 25 µM
60 | CC(C)c1ccc(OCc2nc(-c3ccccn3)no2)c(Br)c1 | 15.6 µM | 20.8 µM
61 | COc1ccccc1N=Nc1nc(-c2ccccc2)c(-c2ccccc2)[nH]1 | 7.2 µM | 17.4 µM
62 | O=C(OCc1csc(Nc2ccccc2)n1)c1ccc(Cl)cc1 | 10.1 µM | 17.6 µM
63 | CCOc1ccc(C(=O)C(CCC(CN(C)C)C(=O)c2ccc(OCC)cc2)CN(C)C)cc1 (stereo unspecified) | 20.4 µM | > 25 µM

Row | SMILES | IC50 (WT cells) | IC50 [1]
64 | Cc1ccc(NC(=O)c2cc(-c3ccccc3)nn2-c2ccccc2)c(Br)c1 | 4.51 µM | > 25 µM
65 | Nc1ccc2nc(CN3CCOCC3)[nH]c2c1 | > 25 µM (inactive) | > 25 µM
66 | O=S(=O)(Nc1ccc(O)c(Sc2nc3ccccc3s2)c1)c1cccc2ccccc12 | 10.8 µM | > 25 µM
67 | CCC(C)(C)c1ccc2c(c1)C(=O)c1ccccc1C2=O | 18.6 µM | > 25 µM
68 | CCOc1cc(C(=O)N(C)Cc2cc3ccccc3[nH]c2=O)cc(OCC)c1OCC | > 25 µM (inactive) | > 25 µM
69 | CC(NC(c1ccccc1)c1ccccc1)C(=O)N1CCCc2ccccc21 (stereo unspecified) | 19.9 µM (inactive) | > 12.5 µM
70 | CC(C)(C)c1cc(/C=N/O)cc(C(C)(C)C)c1O | > 25 µM (inactive) | > 25 µM
71 | O=C(CN1CCN(S(=O)(=O)c2ccc(Cl)s2)CC1)NCc1ccc(Cl)cc1 | > 25 µM (inactive) | > 25 µM
72 | Cc1ccc(C(C)C)c(OCCNC(=S)Nc2cccc3ccccc23)c1 | 6.51 µM | > 25 µM
73 | CCCNC(=S)Nc1ccc2nc(-c3ccccn3)c(-c3ccccn3)nc2c1 | > 25 µM (inactive) | > 25 µM
74 | CC(C)(C)n1nnnc1C(c1ccc(Cl)cc1)N(Cc1cccnc1)Cc1ccco1 (stereo unspecified) | > 25 µM (inactive) | > 25 µM
75 | CN1CCN(c2nc(-c3cccnc3)nc3ccccc23)CC1 | > 25 µM (inactive) | > 25 µM
76 | CC1CC1C(=O)OCC(=O)NCc1ccc(Cl)cc1Cl (stereo unspecified) | > 25 µM (inactive) | > 25 µM
77 | COc1ccc(C(C)(C)C)cc1NC(=O)c1cncc(Br)c1 | > 25 µM (inactive) | > 25 µM
78 | Cc1ccccc1NC(=O)CNc1ccccc1N1CCCCC1 | > 25 µM (inactive) | > 25 µM
79 | Cc1cccc(C(=O)NC(C(=O)Nc2nc(-c3ccccn3)cs2)C(C)C)c1 (stereo unspecified) | 20.8 µM | > 25 µM
80 | COC(=O)c1c(NC(=O)CN2CCC3(O)CCCCC3C2c2ccccc2OC)sc(C)c1C (stereo unspecified) | 10.4 µM | > 25 µM
81 | COc1ccc(/C=N/NC(=O)c2ccn[nH]2)cc1COc1ccc(Cl)cc1Cl | 23 µM | > 25 µM
82 | CCOC(=O)/C(=C\c1ccc(OC(F)F)cc1)C1=Nn2c(nnc2-c2ccc(Cl)cc2)SC1 | 10.8 µM | > 25 µM
83 | O=c1c2cn[nH]c2nc(SCc2c(F)cccc2F)n1-c1ccc(Cl)cc1 | > 25 µM (inactive) | > 25 µM
